From US8445676B2, “Pyrrolotriazine kinase inhibitors” (Bristol-Myers Squibb Company, priority 2008, dated 2013) come the findings set out here.

A value given as a limit tells only on which side of the number the result lay.

This assay has as its target JAK2 (Homo sapiens, UniProt O60674). The assay can be described thus: JAK2 Tyrosine Kinase Assay. In kind it is biochemical. To be noted: list of named compounds; read-out: IC50 in the JAK2 assay. The protocol: JAK2 Tyrosine Kinase Assay
The assays were performed in V-bottom 384-well plates. […] The reaction was initiated by the combination of JAK2 with substrates and test compounds. The reaction was incubated at room temperature for 60 min. and terminated by adding 45 μl of 35 mM EDTA to each sample. The reaction mixture was analyzed on the Caliper LabChip 3000 by electrophoretic separation of the fluorescent substrate and phosphorylated product. […] Compounds were dissolved at 10 mM in dimethylsulfoxide (DMSO) and evaluated at eleven concentrations, each in duplicate. IC50 values were derived by non-linear regression analysis

Chain of JAK2 (O60674 whole entry): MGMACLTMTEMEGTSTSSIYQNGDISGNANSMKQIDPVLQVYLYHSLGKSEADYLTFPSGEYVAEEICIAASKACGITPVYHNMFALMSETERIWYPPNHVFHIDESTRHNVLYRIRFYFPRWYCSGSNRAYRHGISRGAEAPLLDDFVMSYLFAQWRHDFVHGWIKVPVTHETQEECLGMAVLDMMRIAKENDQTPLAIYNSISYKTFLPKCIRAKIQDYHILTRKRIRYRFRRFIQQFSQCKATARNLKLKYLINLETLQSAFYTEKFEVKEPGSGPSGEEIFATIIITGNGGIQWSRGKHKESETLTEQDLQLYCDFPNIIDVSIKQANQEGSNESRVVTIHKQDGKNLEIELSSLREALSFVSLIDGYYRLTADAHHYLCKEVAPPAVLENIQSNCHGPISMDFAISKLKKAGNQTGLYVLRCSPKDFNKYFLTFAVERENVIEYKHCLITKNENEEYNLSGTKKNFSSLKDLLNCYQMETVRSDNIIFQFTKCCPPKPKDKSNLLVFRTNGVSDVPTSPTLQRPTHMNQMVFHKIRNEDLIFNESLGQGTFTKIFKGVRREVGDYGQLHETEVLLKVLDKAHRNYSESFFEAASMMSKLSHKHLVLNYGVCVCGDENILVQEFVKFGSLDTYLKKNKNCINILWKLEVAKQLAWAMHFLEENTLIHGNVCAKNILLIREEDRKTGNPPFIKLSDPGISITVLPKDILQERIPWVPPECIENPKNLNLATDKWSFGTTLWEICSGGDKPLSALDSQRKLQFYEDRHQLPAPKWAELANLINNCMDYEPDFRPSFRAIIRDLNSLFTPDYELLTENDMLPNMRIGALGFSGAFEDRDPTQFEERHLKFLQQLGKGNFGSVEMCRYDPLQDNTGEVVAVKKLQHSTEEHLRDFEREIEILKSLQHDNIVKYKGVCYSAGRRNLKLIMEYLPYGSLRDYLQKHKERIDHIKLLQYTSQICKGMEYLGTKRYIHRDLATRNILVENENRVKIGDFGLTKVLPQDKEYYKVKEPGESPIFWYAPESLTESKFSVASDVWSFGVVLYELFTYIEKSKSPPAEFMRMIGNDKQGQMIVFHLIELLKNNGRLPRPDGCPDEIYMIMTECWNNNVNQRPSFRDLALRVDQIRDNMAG

By IC50 is commonly meant the point on the concentration scale where inhibition reaches its midpoint. Turning to `Cc1cc(Nc2nc(N3CCN(C(=O)C(O)c4c(F)cccc4F)CC3)nn3cccc23)n[nH]1` (stereo not drawn) [1-(2,6-difluorophenyl)-2-(4-(4-((5-methyl-1H-pyrazol-3-yl)amino)pyrrolo[2,1-f][1,2,4]triazin-2-yl)-1-piperazinyl)-2-oxoethanol], the IC50 was not above 5 nM.
For `Cc1cc(Nc2nc(N3CCN(C(=O)C(O)c4ccccc4F)CC3)nn3cccc23)n[nH]1` (stereo not drawn) [1-(2-fluorophenyl)-2-(4-(4-((5-methyl-1H-pyrazol-3-yl)amino)pyrrolo[2,1-f][1,2,4]triazin-2-yl)-1-piperazinyl)-2-oxoethanol] the value was not above 5 nM.
The value for `Cc1cc(Nc2nc(N3CCN(C(=O)C(O)c4ccc(Cl)cc4)CC3)nn3cccc23)n[nH]1` (stereo not drawn) [1-(4-chlorophenyl)-2-(4-(4-((5-methyl-1H-pyrazol-3-yl)amino)pyrrolo[2,1-f][1,2,4]triazin-2-yl)-1-piperazinyl)-2-oxoethanol] was not above 5 nM; that for `Cc1cc(Nc2nc(N3CCN(C(=O)C(O)c4ccc(F)cc4)CC3)nn3cccc23)n[nH]1` (stereo not drawn) [1-(4-fluorophenyl)-2-(4-(4-((5-methyl-1H-pyrazol-3-yl)amino)pyrrolo[2,1-f][1,2,4]triazin-2-yl)-1-piperazinyl)-2-oxoethanol] was not above 5 nM; that for `Cc1cc(Nc2nc(N3CCN(C(=O)C4(C#N)CC4)CC3)nn3cccc23)n[nH]1` [1-((4-(4-((5-methyl-1H-pyrazol-3-yl)amino)pyrrolo[2,1-f][1,2,4]triazin-2-yl)-1-piperazinyl)carbonyl)cyclopropanecarbonitrile] was not above 5 nM.
For `Cc1cc(Nc2nc(N3CCN(C(=O)Cc4ccccc4C#N)CC3)nn3cccc23)n[nH]1` [2-(2-(4-(4-((5-methyl-1H-pyrazol-3-yl)amino)pyrrolo[2,1-f][1,2,4]triazin-2-yl)-1-piperazinyl)-2-oxoethyl)benzonitrile], the IC50 was not above 5 nM.
For `CCC(C)(C)C(=O)N1CCN(c2nc(Nc3cc(C)[nH]n3)c3cccn3n2)CC1` [2-(4-(2,2-dimethylbutanoyl)-1-piperazinyl)-N-(5-methyl-1H-pyrazol-3-yl)pyrrolo[2,1-f][1,2,4]triazin-4-amine] the value was not above 5 nM; for `Cc1cc(Nc2nc(N3CCN(C(=O)c4ccc(Cl)cc4Cl)CC3)nn3cccc23)n[nH]1` [2-(4-(2,4-dichlorobenzoyl)-1-piperazinyl)-N-(5-methyl-1H-pyrazol-3-yl)pyrrolo[2,1-f][1,2,4]triazin-4-amine], not above 5 nM; for `Cc1cc(Nc2nc(N3CCN(C(=O)c4cc(Cl)ccc4Cl)CC3)nn3cccc23)n[nH]1` [2-(4-(2,5-dichlorobenzoyl)-1-piperazinyl)-N-(5-methyl-1H-pyrazol-3-yl)pyrrolo[2,1-f][1,2,4]triazin-4-amine], not above 5 nM.
Take `Cc1cc(Nc2nc(N3CCN(C(=O)c4cc(C)oc4C)CC3)nn3cccc23)n[nH]1` [2-(4-(2,5-dimethyl-3-furoyl)-1-piperazinyl)-N-(5-methyl-1H-pyrazol-3-yl)pyrrolo[2,1-f][1,2,4]triazin-4-amine]: the IC50 is not above 5 nM.
For `Cc1cc(Nc2nc(N3CCN(C(=O)c4ccccc4-c4c(C)n[nH]c4C)CC3)nn3cccc23)n[nH]1` [2-(4-(2-(3,5-dimethyl-1H-pyrazol-4-yl)benzoyl)-1-piperazinyl)-N-(5-methyl-1H-pyrazol-3-yl)pyrrolo[2,1-f][1,2,4]triazin-4-amine] the value was not above 5 nM; for `Cc1cc(Nc2nc(N3CCN(C(=O)C(C)(C)c4ccc(Cl)cc4)CC3)nn3cccc23)n[nH]1` [2-(4-(2-(4-chlorophenyl)-2-methylpropanoyl)-1-piperazinyl)-N-(5-methyl-1H-pyrazol-3-yl)pyrrolo[2,1-f][1,2,4]triazin-4-amine], not above 5 nM; for `Cc1cc(Nc2nc(N3CCN(C(=O)C(c4ccc(Cl)cc4)C(C)C)CC3)nn3cccc23)n[nH]1` (stereo not drawn) [2-(4-(2-(4-chlorophenyl)-3-methylbutanoyl)-1-piperazinyl)-N-(5-methyl-1H-pyrazol-3-yl)pyrrolo[2,1-f][1,2,4]triazin-4-amine], not above 5 nM.
For `Cc1cc(Nc2nc(N3CCN(C(=O)C(C)c4ccc(Cl)cc4)CC3)nn3cccc23)n[nH]1` (stereo not drawn) [2-(4-(2-(4-chlorophenyl)propanoyl)-1-piperazinyl)-N-(5-methyl-1H-pyrazol-3-yl)pyrrolo[2,1-f][1,2,4]triazin-4-amine] the value was not above 5 nM; for `Cc1cc(Nc2nc(N3CCN(C(=O)c4ccccc4Br)CC3)nn3cccc23)n[nH]1` [2-(4-(2-bromobenzoyl)-1-piperazinyl)-N-(5-methyl-1H-pyrazol-3-yl)pyrrolo[2,1-f][1,2,4]triazin-4-amine], not above 5 nM.
Regarding `Cc1cc(Nc2nc(N3CCN(C(=O)c4cc(F)c(F)cc4Cl)CC3)nn3cccc23)n[nH]1` [2-(4-(2-chloro-4,5-difluorobenzoyl)-1-piperazinyl)-N-(5-methyl-1H-pyrazol-3-yl)pyrrolo[2,1-f][1,2,4]triazin-4-amine], the IC50 is not above 5 nM.
With `Cc1cc(Nc2nc(N3CCN(C(=O)c4c(F)cccc4Cl)CC3)nn3cccc23)n[nH]1` [2-(4-(2-chloro-6-fluorobenzoyl)-1-piperazinyl)-N-(5-methyl-1H-pyrazol-3-yl)pyrrolo[2,1-f][1,2,4]triazin-4-amine], the IC50 is not above 5 nM.
The value for `Cc1cc(Nc2nc(N3CCN(C(=O)c4c(C)cccc4Cl)CC3)nn3cccc23)n[nH]1` [2-(4-(2-chloro-6-methylbenzoyl)-1-piperazinyl)-N-(5-methyl-1H-pyrazol-3-yl)pyrrolo[2,1-f][1,2,4]triazin-4-amine] was not above 5 nM.
The value for `Cc1cc(Nc2nc(N3CCN(C(=O)c4c(F)cccc4C(F)(F)F)CC3)nn3cccc23)n[nH]1` [2-(4-(2-fluoro-6-(trifluoromethyl)benzoyl)-1-piperazinyl)-N-(5-methyl-1H-pyrazol-3-yl)pyrrolo[2,1-f][1,2,4]triazin-4-amine] was not above 5 nM.
As to `COc1cccc(F)c1C(=O)N1CCN(c2nc(Nc3cc(C)[nH]n3)c3cccn3n2)CC1` [2-(4-(2-fluoro-6-methoxybenzoyl)-1-piperazinyl)-N-(5-methyl-1H-pyrazol-3-yl)pyrrolo[2,1-f][1,2,4]triazin-4-amine], the IC50 is not above 5 nM.
Consider `Cc1cc(Nc2nc(N3CCN(C(=O)c4ccccc4F)CC3)nn3cccc23)n[nH]1` [2-(4-(2-fluorobenzoyl)-1-piperazinyl)-N-(5-methyl-1H-pyrazol-3-yl)pyrrolo[2,1-f][1,2,4]triazin-4-amine], for which the IC50 was not above 5 nM.
On to `Cc1cc(Nc2nc(N3CCN(C(=O)c4cccc(Cl)c4)CC3)nn3cccc23)n[nH]1` [2-(4-(3-chlorobenzoyl)-1-piperazinyl)-N-(5-methyl-1H-pyrazol-3-yl)pyrrolo[2,1-f][1,2,4]triazin-4-amine], for which the IC50 was not above 5 nM.
The value for `Cc1cc(Nc2nc(N3CCN(C(=O)c4cccc(F)c4)CC3)nn3cccc23)n[nH]1` [2-(4-(3-fluorobenzoyl)-1-piperazinyl)-N-(5-methyl-1H-pyrazol-3-yl)pyrrolo[2,1-f][1,2,4]triazin-4-amine] was not above 5 nM; that for `Cc1cc(Nc2nc(N3CCN(C(=O)c4ccoc4)CC3)nn3cccc23)n[nH]1` [2-(4-(3-furoyl)-1-piperazinyl)-N-(5-methyl-1H-pyrazol-3-yl)pyrrolo[2,1-f][1,2,4]triazin-4-amine] was not above 5 nM.
For `COc1cccc(C(=O)N2CCN(c3nc(Nc4cc(C)[nH]n4)c4cccn4n3)CC2)c1` [2-(4-(3-methoxybenzoyl)-1-piperazinyl)-N-(5-methyl-1H-pyrazol-3-yl)pyrrolo[2,1-f][1,2,4]triazin-4-amine] the value was not above 5 nM; for `Cc1cccc(C(=O)N2CCN(c3nc(Nc4cc(C)[nH]n4)c4cccn4n3)CC2)c1` [2-(4-(3-methylbenzoyl)-1-piperazinyl)-N-(5-methyl-1H-pyrazol-3-yl)pyrrolo[2,1-f][1,2,4]triazin-4-amine], not above 5 nM.
As to `Cc1cc(Nc2nc(N3CCN(C(=O)c4ccc(F)cc4)CC3)nn3cccc23)n[nH]1` [2-(4-(4-fluorobenzoyl)-1-piperazinyl)-N-(5-methyl-1H-pyrazol-3-yl)pyrrolo[2,1-f][1,2,4]triazin-4-amine], the IC50 was not above 5 nM.
The value for `COc1ccc(C(=O)N2CCN(c3nc(Nc4cc(C)[nH]n4)c4cccn4n3)CC2)cc1` [2-(4-(4-methoxybenzoyl)-1-piperazinyl)-N-(5-methyl-1H-pyrazol-3-yl)pyrrolo[2,1-f][1,2,4]triazin-4-amine] was not above 5 nM; that for `Cc1cc(Nc2nc(N3CCN(C(=O)C4(c5c(F)cccc5Cl)CCCCC4)CC3)nn3cccc23)n[nH]1` [2-(4-((1-(2-chloro-6-fluorophenyl)cyclohexyl)carbonyl)-1-piperazinyl)-N-(5-methyl-1H-pyrazol-3-yl)pyrrolo[2,1-f][1,2,4]triazin-4-amine] was not above 5 nM; that for `Cc1ccc(C2(C(=O)N3CCN(c4nc(Nc5cc(C)[nH]n5)c5cccn5n4)CC3)CCCCC2)cc1` [2-(4-((1-(4-methylphenyl)cyclohexyl)carbonyl)-1-piperazinyl)-N-(5-methyl-1H-pyrazol-3-yl)pyrrolo[2,1-f][1,2,4]triazin-4-amine] was not above 5 nM.
On to `Cc1cc(Nc2nc(N3CCN(C(=O)C4(C)CC4)CC3)nn3cccc23)n[nH]1` [2-(4-((1-methylcyclopropyl)carbonyl)-1-piperazinyl)-N-(5-methyl-1H-pyrazol-3-yl)pyrrolo[2,1-f][1,2,4]triazin-4-amine], for which the IC50 is not above 5 nM.
For `Cc1cc(Nc2nc(N3CCN(C(=O)Cc4c(Cl)cccc4Cl)CC3)nn3cccc23)n[nH]1` [2-(4-((2,6-dichlorophenyl)acetyl)-1-piperazinyl)-N-(5-methyl-1H-pyrazol-3-yl)pyrrolo[2,1-f][1,2,4]triazin-4-amine], the IC50 is not above 5 nM.
On to `Cc1cc(Nc2nc(N3CCN(C(=O)Cc4c(F)cccc4F)CC3)nn3cccc23)n[nH]1` [2-(4-((2,6-difluorophenyl)acetyl)-1-piperazinyl)-N-(5-methyl-1H-pyrazol-3-yl)pyrrolo[2,1-f][1,2,4]triazin-4-amine], for which the IC50 is not above 5 nM.
